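Interpolation was linear, between the two tested concentrations surrounding the appropriate level; five concentrations were tested over 48 hours in 96-well plates. GI50 marks 50% less growth. Definition used: TGI = concentration required for complete inhibition of growth.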
Assays:
Experiment in all cases: NCI-60 cell line screen, 48 h
[1] = test system: MCF7 breast
[2] = test system: NCI-H522 lung
[3] = test system: SNB-75 CNS
[4] = test system: UO-31 renal
[5] = test system: UACC-257 melanoma
[6] = test system: A498 renal
[7] = test system: OVCAR-3 ovarian
[8] = test system: SR leukemia
[9] = test system: EKVX NSCLC
[10] = test system: OVCAR-5 ovarian
[11] = test system: SF-268 CNS
[12] = test system: MOLT-4 leukemia
[13] = test system: U251 CNS
[14] = test system: HT29 colon
[15] = test system: OVCAR-4 ovarian
[16] = test system: SK-MEL-28 melanoma
[17] = test system: BT-549 breast
[18] = test system: HL-60(TB) leukemia
[19] = test system: LOX IMVI melanoma
[20] = test system: SK-OV-3 ovarian
[21] = test system: COLO 205 colon
[22] = test system: NCI-H460 lung
[23] = test system: HCT-15 colon
[24] = test system: SW-620 colon
[25] = test system: HOP-92 NSCLC
[26] = test system: TK-10 renal
[27] = test system: UACC-62 melanoma
[28] = test system: CAKI-1 renal
[29] = test system: HS 578T breast

## COC(=O)c1c2c(c[n+]([O-])c1C)C(=O)C=C(NCc1ccccc1)C2=O
[1]
  GI50: 149 nM
  TGI: 361 nM
[2]
  GI50: 189 nM
  TGI: 509 nM
[3]
  GI50: 166 nM
  TGI: 309 nM
[4]
  GI50: 183 nM
  TGI: 477 nM
[5]
  GI50: 148 nM
  TGI: 323 nM
[6]
  GI50: 210 nM
  TGI: 1050 nM
[7]
  GI50: 41.3 nM
  TGI: 209 nM
[8]
  GI50: 204 nM
[9]
  GI50: 205 nM
  TGI: 507 nM
[10]
  GI50: 192 nM
  TGI: 390 nM
[11]
  GI50: 263 nM
  TGI: 929 nM
[12]
  GI50: 203 nM
  TGI: 497 nM
[13]
  GI50: 255 nM
  TGI: 787 nM
[14]
  GI50: 211 nM
  TGI: 1420 nM
[15]
  GI50: 90.4 nM
  TGI: 225 nM
[16]
  GI50: 245 nM
  TGI: 554 nM
[17]
  GI50: 169 nM
  TGI: 319 nM
[18]
  GI50: 174 nM
  TGI: 445 nM
[19]
  GI50: 175 nM
  TGI: 451 nM
[20]
  GI50: 425 nM
  TGI: 1600 nM
[21]
  GI50: 151 nM
  TGI: 372 nM
[22]
  GI50: 215 nM
  TGI: 476 nM
[23]
  GI50: 151 nM
  TGI: 350 nM
[24]
  GI50: 258 nM
  TGI: 727 nM
[25]
  GI50: 287 nM
  TGI: 822 nM
[26]
  GI50: 690 nM
  TGI: 2090 nM
[27]
  GI50: 154 nM
  TGI: 304 nM
[28]
  GI50: 289 nM
  TGI: 1120 nM
[29]
  GI50: 263 nM
  TGI: 710 nM
